Experimental findings from PubChem BioAssay (NCI) are described below.

The structures appear in SMILES notation.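 Growth conditions: 96-well plates. Treatment: test compound, 48 hours, 5 concentrations. Analysis: linear interpolation between bracketing concentrations; unreached endpoints set to highest concentration. GI50 is the concentration that inhibits growth by half. Definition used: TGI = concentration required for complete inhibition of growth.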

What all share (test): growth of human tumour cells (NCI), 48 h
In assay [1] the test system is HL-60(TB) leukemia.
For assay [2], the system named is OVCAR-4 ovarian.
The test system of assay [3] is RXF 393 renal.
The subject of assay [4] is U251 CNS.
In assay [5] the test system is TK-10 renal.
Assay [6] has as its system M14 melanoma.
The subject of assay [7] is HOP-62 NSCLC.
The test system of assay [8] is SK-MEL-28 melanoma.
Assay [9] relates to SF-295 CNS.
Assay [10] concerns ACHN renal.

Take `CC(=O)[CH-]C(=O)c1ccccc1.CC(=O)[CH-]C(=O)c1ccccc1.COc1cccc([O-])c1[O-].[Ti+4]`: the GI50 is 20.3 µM in assay [1]; 54.3 µM in assay [2]; 30 µM in [3]; 25.7 µM in assay [4]; greater than 100 µM in [5]; 64.9 µM in [6]. For the same molecule, the GI50 is 71.4 µM in assay [7], 31 µM in assay [8], 70.4 µM in assay [9] and 94.9 µM in assay [10]. The TGI in assay [1] is 98.2 µM; in assay [2], greater than 100 µM; in assay [3], greater than 100 µM; in [4], greater than 100 µM; in assay [5] it was greater than 100 µM; in assay [6] it was greater than 100 µM. The TGI in assay [7], in assay [8], in [9] and in assay [10] was greater than 100 µM in each case.

On to `COc1cc2ccccc2c2cc([N+](=O)[O-])oc12`, for which the TGI in assay [1] is greater than 31.2 µM; in [2], greater than 44 µM; in [3], 0.844 µM; in assay [4], 7.14 µM; in assay [5], 5.44 µM; in [6], 0.608 µM. Besides, the figures for the TGI in assay [7], in [8] and in assay [9] were 32 µM, 0.695 µM and 15.6 µM, respectively.

Regarding `Cc1ccc(C2CC(c3ccc([N+](=O)[O-])cc3)=Nc3ccccc3S2)cc1` (configuration not stated), the TGI was 43.4 µM in assay [1]; greater than 100 µM in assay [2]; 38.9 µM in assay [3]; greater than 100 µM in assay [5]; greater than 100 µM in [6]; greater than 100 µM in [7]. In addition, the TGI in [8] is 94.3 µM; in assay [9], greater than 100 µM; in [10], greater than 100 µM.

For `O=C(c1ccccc1)C(c1ccccc1)C1(O)C(=O)Nc2ccccc21` (configuration not stated), the TGI in [1], in [2], in [3], in [5], in [6] and in [7] was greater than 100 µM in each case. For the same molecule, the TGI in assay [8], in [9] and in [10] was greater than 100 µM in each case.

For `O=C(O)C1CCc2nnc(-c3ccccc3)n21` (configuration not stated), the TGI in [1], in [2], in assay [3], in [4], in [5] and in assay [6] was greater than 100 µM each time. The TGI in [7], in assay [8] and in assay [10] was greater than 100 µM in each case.

For `COc1c(C2=NC(C(C)C)CO2)ccc2ccccc12` (configuration not stated), the TGI is 42.9 µM in assay [1]; greater than 100 µM in assay [2]; 86.8 µM in [3]; greater than 100 µM in assay [5]; greater than 100 µM in assay [6]; greater than 100 µM in assay [7]. For the same molecule, the TGI in assay [8], in assay [9] and in assay [10] was greater than 100 µM throughout.

For `N#CCCN(CCC#N)C(=O)c1cccc(C(=O)N(CCC#N)CCC#N)c1`, the TGI in [1] is greater than 73.3 µM; in assay [2] it was greater than 100 µM; in [3] it was 9.76 µM; in [4], greater than 59.4 µM; in [5], greater than 100 µM; in assay [6], greater than 100 µM. Further, the TGI in assay [7], in assay [9] and in assay [10] was greater than 100 µM throughout.

As for `CCCN(CCCN)/[N+]([O-])=N\O`, the TGI in assay [1], in assay [2], in assay [3], in assay [4], in assay [6] and in assay [7] was greater than 100 µM throughout. For the same molecule, the TGI in assay [8], in assay [9] and in [10] was greater than 100 µM throughout.

Consider `CCN(CC)C(=O)CC1=C(C)/C(=C/c2[nH]c(-c3ccc[nH]3)cc2OC)N=C1C`, for which the GI50 is 1.82 µM in assay [1]; 0.409 µM in [2]; 1.1 µM in [3]; 0.449 µM in assay [4]; 0.466 µM in [5]; 0.227 µM in [6]. Besides, the GI50 in assay [7] is 0.504 µM; in [9], 0.361 µM; in [10], 0.374 µM. For the same molecule, the TGI in assay [1] is 61.9 µM; in [2] it was greater than 100 µM; in assay [3], 22.9 µM; in [4], 15.5 µM; in [5], 17.3 µM; in [6] it was 0.607 µM. Also, the TGI came to 11.6 µM in assay [7], 1.73 µM in [9] and 1.97 µM in assay [10].

Turning to `CC1(C)OC(=O)[C@@](C)([C@H](O)c2ccccc2)O1`, the TGI in assay [1], in assay [2], in assay [3], in [4], in assay [5] and in assay [6] was greater than 100 µM throughout. For the same molecule, the TGI in [7], in assay [9] and in assay [10] was greater than 100 µM throughout.

As for `O=[N+]([O-])c1cc([N+](=O)[O-])c(Cl)c(Cl)c1Cl`, the GI50 in assay [1] is 2.07 µM; in [2], 1.78 µM; in assay [3], 0.636 µM; in assay [4], 1.59 µM; in [5], 1.8 µM; in [7], 1.67 µM. The GI50 in assay [8] is 1.67 µM; in assay [9], 8.15 µM; in assay [10], 1.04 µM. Besides, the TGI in [1] was 4.69 µM; in assay [2] it was 3.16 µM; in assay [3], 1.86 µM; in assay [4], 3.02 µM; in assay [5], 3.65 µM; in [7] it was 3.05 µM. The TGI in assay [8] amounted to 3.06 µM; in assay [9], 23.1 µM; in assay [10], 2.3 µM.

On to `O=C(CC(=O)c1ccc([N+](=O)[O-])cc1)C(=O)Nc1nccs1`, for which the TGI in assay [1], in [2], in assay [3], in [4], in [5] and in [6] was greater than 100 µM in each case. Also, the TGI in assay [7], in assay [8] and in [10] was greater than 100 µM each time.
